How the values were obtained:
[1] = target: Dual specificity calcium/calmodulin-dependent 3',5'-cyclic nucleotide phosphodiesterase 1A (Homo sapiens) (UniProt P54750); assay: Panlabs assay PDE1A; set-up: compound concentration 10 uM; details: at 10 µM
[2] = target: Estrogen receptor (Homo sapiens) (UniProt P03372); assay: Estrogen Eralpha Eurofins Panlabs panel; details: Compound concentration 10.0 uM
[3] = target: Thromboxane-A synthase (Homo sapiens) (UniProt P24557); assay: Thromboxane Synthase Eurofins Panlabs panel; details: concentration not given here
Chain of Thromboxane-A synthase (Homo sapiens) (P24557 whole entry): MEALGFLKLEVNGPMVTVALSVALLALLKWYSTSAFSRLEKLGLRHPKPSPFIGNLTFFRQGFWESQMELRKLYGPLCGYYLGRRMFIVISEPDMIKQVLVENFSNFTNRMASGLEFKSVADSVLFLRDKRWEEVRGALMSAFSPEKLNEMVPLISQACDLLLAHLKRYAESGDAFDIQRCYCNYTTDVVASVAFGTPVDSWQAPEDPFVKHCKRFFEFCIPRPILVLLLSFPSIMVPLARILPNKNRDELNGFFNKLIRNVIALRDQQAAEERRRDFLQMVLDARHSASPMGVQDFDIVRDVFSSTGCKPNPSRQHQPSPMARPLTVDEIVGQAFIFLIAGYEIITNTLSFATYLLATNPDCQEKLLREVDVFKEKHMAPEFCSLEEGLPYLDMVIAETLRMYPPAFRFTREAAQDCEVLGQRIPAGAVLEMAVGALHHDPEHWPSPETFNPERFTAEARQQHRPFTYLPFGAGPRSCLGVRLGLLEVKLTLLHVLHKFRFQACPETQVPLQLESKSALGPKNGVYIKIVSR

[4] = target: D(2) dopamine receptor (Homo sapiens) (UniProt P14416); assay: Dopamine D2L Eurofins Panlabs panel; details: Compound concentration 10.0 uM
[5] = target: Leukotriene C4 synthase (Cavia porcellus) (UniProt A6XA80); assay: Leukotriene LTC4 Synthase Eurofins Panlabs panel; details: Compound concentration 10.0 uM
Chain of Leukotriene C4 synthase (Cavia porcellus) (A6XA80 whole entry): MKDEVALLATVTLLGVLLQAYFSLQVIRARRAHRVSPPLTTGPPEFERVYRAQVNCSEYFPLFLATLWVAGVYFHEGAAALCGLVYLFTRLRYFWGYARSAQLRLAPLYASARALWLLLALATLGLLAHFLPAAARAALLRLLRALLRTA

[6] = target: T1, 5-hydroxytryptamine receptor 1A (Homo sapiens) (UniProt P08908); assay: Serotonin (5-Hydroxytryptamine) 5-HT1A Eurofins Panlabs panel; details: Compound concentration 10.0 uM
T1 sequence (whole entry): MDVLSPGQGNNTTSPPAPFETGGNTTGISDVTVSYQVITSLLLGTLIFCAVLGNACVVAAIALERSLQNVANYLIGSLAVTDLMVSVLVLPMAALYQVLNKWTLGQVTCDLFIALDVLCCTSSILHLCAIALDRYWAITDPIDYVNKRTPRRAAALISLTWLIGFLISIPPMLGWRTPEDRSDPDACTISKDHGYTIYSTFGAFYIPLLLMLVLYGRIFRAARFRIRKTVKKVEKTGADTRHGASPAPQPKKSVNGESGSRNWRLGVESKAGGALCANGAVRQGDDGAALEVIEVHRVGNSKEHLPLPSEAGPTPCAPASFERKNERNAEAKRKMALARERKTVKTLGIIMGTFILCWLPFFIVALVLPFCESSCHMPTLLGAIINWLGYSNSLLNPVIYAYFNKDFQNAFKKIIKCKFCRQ

[7] = target: Sodium-dependent noradrenaline transporter (Homo sapiens) (UniProt P23975); assay: Transporter, Norepinephrine (NET) Eurofins Panlabs panel; details: Compound concentration 10.0 uM
Chain of Sodium-dependent noradrenaline transporter (Homo sapiens) (P23975 whole entry): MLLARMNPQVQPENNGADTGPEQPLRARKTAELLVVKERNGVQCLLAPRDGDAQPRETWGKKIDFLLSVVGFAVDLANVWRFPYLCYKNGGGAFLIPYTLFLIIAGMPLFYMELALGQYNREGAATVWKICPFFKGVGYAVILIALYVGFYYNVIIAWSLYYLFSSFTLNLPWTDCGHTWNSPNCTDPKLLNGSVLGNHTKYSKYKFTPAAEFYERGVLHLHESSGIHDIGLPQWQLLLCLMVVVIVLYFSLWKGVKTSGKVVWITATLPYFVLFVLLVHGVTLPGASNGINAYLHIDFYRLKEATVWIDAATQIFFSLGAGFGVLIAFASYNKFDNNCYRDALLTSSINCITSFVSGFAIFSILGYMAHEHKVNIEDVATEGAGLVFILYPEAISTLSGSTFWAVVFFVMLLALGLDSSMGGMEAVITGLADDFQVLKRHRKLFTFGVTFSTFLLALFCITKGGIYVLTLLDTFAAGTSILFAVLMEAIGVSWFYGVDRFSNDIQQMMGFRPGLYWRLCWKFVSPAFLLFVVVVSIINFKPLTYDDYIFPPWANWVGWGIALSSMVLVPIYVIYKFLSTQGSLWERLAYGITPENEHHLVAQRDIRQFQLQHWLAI

[8] = target: B1 bradykinin receptor (Homo sapiens) (UniProt P46663); assay: Bradykinin B1 Eurofins Panlabs panel; details: Compound concentration 10.0 uM
Chain of B1 bradykinin receptor (Homo sapiens) (P46663 whole entry): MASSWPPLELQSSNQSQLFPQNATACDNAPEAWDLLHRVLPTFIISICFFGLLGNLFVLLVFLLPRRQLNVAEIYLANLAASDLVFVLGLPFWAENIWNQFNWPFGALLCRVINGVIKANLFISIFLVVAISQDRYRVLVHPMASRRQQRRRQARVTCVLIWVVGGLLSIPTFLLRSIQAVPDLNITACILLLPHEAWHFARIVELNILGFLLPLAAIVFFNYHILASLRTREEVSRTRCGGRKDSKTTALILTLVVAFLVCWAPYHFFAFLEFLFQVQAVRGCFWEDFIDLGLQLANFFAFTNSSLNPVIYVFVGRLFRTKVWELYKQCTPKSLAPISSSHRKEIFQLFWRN

[9] = target: Nicotinic Acetylcholine Receptor (Homo sapiens) (UniProt P02708+P07510+P11230+P17787+P30926+P32297+P43681+Q07001+Q15822+Q9UGM1+Q15825+P30532+Q04844+P36544+Q9GZZ6+Q05901); assay: Nicotinic Acetylcholine Eurofins Panlabs panel; type: protein-complex assay; details: Compound concentration 10.0 uM
[10] = target: Cannabinoid receptor 1 (Homo sapiens) (UniProt P21554); assay: Cannabinoid CB1 Eurofins Panlabs panel; details: Compound concentration 10.0 uM
[11] = target: Adenosine Transporter (Cavia porcellus) (UniProt H0V4R7+H0UUG1+H0V3Z5); assay: Transporter, Adenosine Eurofins Panlabs panel; type: protein assay; details: Compound concentration 10.0 uM
[12] = target: cGMP-inhibited 3',5'-cyclic phosphodiesterase 3B (Homo sapiens, UniProt Q13370); assay: 3H-cAMP and 3H-cGMP Scintillation Proximity Assay (PDE3B)
[13] = target: 3',5'-cyclic-AMP phosphodiesterase 7B (Homo sapiens, UniProt Q9NP56); assay: 3H-cAMP and 3H-cGMP Scintillation Proximity Assay (PDE7B)
Chain of 3',5'-cyclic-AMP phosphodiesterase 7B (Q9NP56 whole entry): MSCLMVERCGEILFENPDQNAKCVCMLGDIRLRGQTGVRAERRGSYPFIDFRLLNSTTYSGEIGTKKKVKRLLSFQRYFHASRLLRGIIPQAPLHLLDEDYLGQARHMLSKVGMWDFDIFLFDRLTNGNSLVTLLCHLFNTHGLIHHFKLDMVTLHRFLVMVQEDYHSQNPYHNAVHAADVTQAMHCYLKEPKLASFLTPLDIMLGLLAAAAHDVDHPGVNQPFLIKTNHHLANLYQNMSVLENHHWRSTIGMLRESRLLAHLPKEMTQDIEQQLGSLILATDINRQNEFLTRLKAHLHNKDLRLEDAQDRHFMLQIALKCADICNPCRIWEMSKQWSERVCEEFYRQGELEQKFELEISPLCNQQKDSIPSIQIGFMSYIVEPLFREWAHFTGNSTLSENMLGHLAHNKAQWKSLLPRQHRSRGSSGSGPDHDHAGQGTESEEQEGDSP

[14] = target: Muscarinic acetylcholine receptor M5 (Homo sapiens) (UniProt P08912); details: Compound concentration 10.0 uM
Chain of Muscarinic acetylcholine receptor M5 (Homo sapiens) (P08912 whole entry): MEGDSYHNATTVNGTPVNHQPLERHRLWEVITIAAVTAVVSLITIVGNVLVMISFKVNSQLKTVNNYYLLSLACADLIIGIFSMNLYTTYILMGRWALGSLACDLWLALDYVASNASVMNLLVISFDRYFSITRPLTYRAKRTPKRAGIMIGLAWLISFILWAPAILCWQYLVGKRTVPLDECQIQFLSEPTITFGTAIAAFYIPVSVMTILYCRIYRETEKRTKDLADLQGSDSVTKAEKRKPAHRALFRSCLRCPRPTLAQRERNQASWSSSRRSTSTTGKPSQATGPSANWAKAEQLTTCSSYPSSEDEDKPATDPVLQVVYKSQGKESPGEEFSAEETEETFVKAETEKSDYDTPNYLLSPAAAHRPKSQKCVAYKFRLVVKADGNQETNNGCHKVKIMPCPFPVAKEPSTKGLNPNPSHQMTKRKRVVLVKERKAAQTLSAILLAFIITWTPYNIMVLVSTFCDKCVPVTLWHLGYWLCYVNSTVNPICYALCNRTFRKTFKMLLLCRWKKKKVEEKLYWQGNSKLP

[15] = target: Angiotensin-converting enzyme (Oryctolagus cuniculus) (UniProt P12822); assay: Peptidase, Angiotensin Converting Enzyme Eurofins Panlabs panel; details: Compound concentration 10.0 uM
[16] = target: GABA transporter (Rattus norvegicus) (UniProt P31647+P23978+P31646+P48056); assay: Transporter, GABA Eurofins Panlabs panel; type: protein assay; details: Compound concentration 10.0 uM
[17] = target: Monoamine oxidase A (MAO-A) (Homo sapiens, UniProt P21397); assay: Monoamine Oxidase MAO-A Eurofins Panlabs panel; details: compound concentration 10 uM
Chain of Monoamine oxidase A (MAO-A) (P21397 whole entry): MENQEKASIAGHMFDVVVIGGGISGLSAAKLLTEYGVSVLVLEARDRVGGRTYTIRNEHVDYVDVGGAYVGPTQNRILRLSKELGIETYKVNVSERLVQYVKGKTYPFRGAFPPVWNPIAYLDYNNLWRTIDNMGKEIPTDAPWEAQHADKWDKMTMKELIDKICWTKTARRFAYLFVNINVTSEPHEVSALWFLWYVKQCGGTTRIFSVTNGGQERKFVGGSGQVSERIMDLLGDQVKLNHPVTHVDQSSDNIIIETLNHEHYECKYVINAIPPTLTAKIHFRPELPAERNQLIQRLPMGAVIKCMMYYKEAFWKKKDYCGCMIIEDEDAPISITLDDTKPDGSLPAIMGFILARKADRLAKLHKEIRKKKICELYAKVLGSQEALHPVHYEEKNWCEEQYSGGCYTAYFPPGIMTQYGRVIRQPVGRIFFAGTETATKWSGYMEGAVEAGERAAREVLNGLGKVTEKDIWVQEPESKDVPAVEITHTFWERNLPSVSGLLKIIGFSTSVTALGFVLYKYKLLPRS

[18] = target: 3-hydroxy-3-methylglutaryl-coenzyme A reductase (Homo sapiens) (UniProt P04035); assay: HMG-CoA Reductase Eurofins Panlabs panel; details: Compound concentration 10.0 uM
Chain of 3-hydroxy-3-methylglutaryl-coenzyme A reductase (Homo sapiens) (P04035 whole entry): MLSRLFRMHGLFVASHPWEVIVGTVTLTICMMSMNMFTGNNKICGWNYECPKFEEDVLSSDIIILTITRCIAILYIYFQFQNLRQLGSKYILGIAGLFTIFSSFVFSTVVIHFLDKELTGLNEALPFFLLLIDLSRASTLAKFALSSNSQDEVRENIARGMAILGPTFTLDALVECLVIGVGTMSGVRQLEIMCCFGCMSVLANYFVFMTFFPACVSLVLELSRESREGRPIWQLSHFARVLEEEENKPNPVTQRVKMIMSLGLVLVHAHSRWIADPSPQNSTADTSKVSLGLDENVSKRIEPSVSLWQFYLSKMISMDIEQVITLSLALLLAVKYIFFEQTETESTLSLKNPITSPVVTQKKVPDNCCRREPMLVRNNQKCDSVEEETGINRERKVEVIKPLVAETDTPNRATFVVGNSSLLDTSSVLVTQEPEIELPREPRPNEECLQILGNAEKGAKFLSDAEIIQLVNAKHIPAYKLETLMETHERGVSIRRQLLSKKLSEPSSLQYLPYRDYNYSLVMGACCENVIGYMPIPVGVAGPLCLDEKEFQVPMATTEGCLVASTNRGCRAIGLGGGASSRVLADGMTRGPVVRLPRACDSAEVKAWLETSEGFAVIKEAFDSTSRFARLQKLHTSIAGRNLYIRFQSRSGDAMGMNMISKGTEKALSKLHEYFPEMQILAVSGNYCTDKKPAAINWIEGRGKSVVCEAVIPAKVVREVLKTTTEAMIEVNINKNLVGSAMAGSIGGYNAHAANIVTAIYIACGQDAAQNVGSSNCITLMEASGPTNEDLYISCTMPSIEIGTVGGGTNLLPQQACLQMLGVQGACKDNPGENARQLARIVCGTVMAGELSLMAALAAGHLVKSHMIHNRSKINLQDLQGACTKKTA

[19] = target: High affinity cAMP-specific and IBMX-insensitive 3',5'-cyclic phosphodiesterase 8A (Homo sapiens, UniProt O60658); assay: 3H-cAMP and 3H-cGMP Scintillation Proximity Assay (PDE8A)
Chain of High affinity cAMP-specific and IBMX-insensitive 3',5'-cyclic phosphodiesterase 8A (O60658 whole entry): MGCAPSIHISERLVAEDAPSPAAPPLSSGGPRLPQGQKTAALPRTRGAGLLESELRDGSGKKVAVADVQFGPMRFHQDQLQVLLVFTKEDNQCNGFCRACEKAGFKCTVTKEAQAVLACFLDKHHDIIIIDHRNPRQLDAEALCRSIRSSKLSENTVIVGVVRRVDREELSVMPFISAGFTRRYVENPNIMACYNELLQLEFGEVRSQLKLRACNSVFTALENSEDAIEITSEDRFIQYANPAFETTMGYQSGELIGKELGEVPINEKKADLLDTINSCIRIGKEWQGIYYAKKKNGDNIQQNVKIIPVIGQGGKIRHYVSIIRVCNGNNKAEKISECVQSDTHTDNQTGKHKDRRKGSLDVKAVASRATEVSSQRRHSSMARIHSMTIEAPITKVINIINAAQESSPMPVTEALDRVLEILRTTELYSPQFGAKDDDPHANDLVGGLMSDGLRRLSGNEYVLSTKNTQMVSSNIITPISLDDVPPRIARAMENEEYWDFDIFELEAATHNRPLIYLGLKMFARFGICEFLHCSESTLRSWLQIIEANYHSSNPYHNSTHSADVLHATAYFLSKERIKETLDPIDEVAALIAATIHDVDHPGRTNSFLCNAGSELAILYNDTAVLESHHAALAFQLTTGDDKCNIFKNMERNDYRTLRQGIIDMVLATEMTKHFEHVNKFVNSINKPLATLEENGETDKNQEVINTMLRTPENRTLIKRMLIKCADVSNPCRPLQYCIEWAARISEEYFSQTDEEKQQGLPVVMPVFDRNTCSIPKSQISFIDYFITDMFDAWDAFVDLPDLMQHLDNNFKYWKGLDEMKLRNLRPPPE

[20] = target: Sigma non-opioid intracellular receptor 1 (Homo sapiens) (UniProt Q99720); assay: Sigma1 Eurofins Panlabs panel; details: Compound concentration 10.0 uM

SMILES | inhibition [1] | inhibition [2] | inhibition [3] | inhibition [4] | inhibition [5] | inhibition [6] | inhibition [7] | inhibition [8] | inhibition [9] | inhibition [10] | inhibition [11] | IC50 [12] | IC50 [13] | inhibition [14] | inhibition [15] | inhibition [16] | inhibition at 10 µM [17] | inhibition [18] | IC50 [19] | inhibition [20]
CCC[C@@H]1CNCc2c1[nH]c(=O)c(C#N)c2N1CCC2(CC1)CC2 | 7.7% |  |  |  |  |  |  |  |  |  |  |  |  |  |  |  |  |  |  | 
CCC[C@H]1CNCc2c1[nH]c(=O)c(C#N)c2N1CCC2(CC1)CC2 |  | 8% | 0% | 12% | 16% | 10% | 6% | 1% | 5% | 31.2% | 4% | > 10 µM (not active) | > 10 µM (not active) | -6.97% | 4% | 11% | 2% | 8% | 1.49 µM (not active) | -4%

— ChEMBL document CHEMBL5303765, “Data for DCP probe BAY-7081” (2023)
